Reference: patent publication US12479841B2, “Anthelmintic compounds comprising azaindoles structure” (Intervet Inc., priority 2019, dated 2025)

How the values were obtained:
[1] = target: Caenorhabditis elegans slo-1a (Caenorhabditis elegans, UniProt Q95V25)
Method: In Vitro Assay: Agonistic Activity at C. elegans Slo-1a
A CHO K1 cell line stably transfected with the Caenorhabditis elegans slo-1a (accession no Y51A2D.19a) was established. Cells were seeded in microtiter plates (black 384-well MTP, clear bottom) in a concentration of 10,000 cells/well in 25 μl medium and cultured for 20 to 24 hours at 37° C. and 5% CO2. The cell medium was removed, and the cells washed with Tyrode's solution. 25 μl of FMP-dye Blue-Tyrode's was added to each well and incubated at room temperature for 30 min.
(§1) For the membrane potential measurements, the prepared cell plate and substance plate were placed in the FLIPR Tetra (Molecular Devices). The baseline measurement of the fluorescence was stared for 20 sec (Exc. 510-545 nm, Emm. 565-625 nm). The cells were depolarized by addition of 25 μl of the diluted test compounds (final assay concentration of the KCl-Tyrode: 70 mM KCl, 2 mM CaCl2, 1 mM MgCl2, 0.8 mM NaH2PO4, 5 mM Glucose, 28 mM Hepes, pH 7.4, including the voltage sensitive dye). The complete measurement takes 150 s.
(§2) EC50 values were determined in triplicate utilizing compound dilution series. The data were determined at least in two independent tests. The data were proceeded by using the ActivityBase XE Runner software (IDBS) for curve fitting and calculation of the half-maximal effective concentration.

[2] = target: human Maxi K channel (BK channel), KCNMA1 (KCa1.1) and beta1 (KCNMB1) subunits (Homo sapiens, UniProt Q12791)
Method: In Vitro Assay: Agonistic Activity at the Human Maxi K Channel (BK Channel)
A CHO K1 cell line was stably transfected with the KCNMA1 (KCa1.1, U11058) and beta1 (KCNMB1) subunits of the human Maxi K channel (Ponte et al, Molecular Pharmacology 2012, 81(4), 567-577).
Cells were seeded in microtiter plates (black 384-well MTP, clear bottom) in a concentration of 10,000 cells/well in 25 μl medium and cultured for 20 to 24 hours at 37° C. and 5% CO2. The cell medium was removed, and the cells washed with Tyrode's solution. 25 μl of FMP-dye Blue-Tyrode's was added to each well and incubated at room temperature for 30 min.
as §1, §2

[3] = tested on: Oesophagostomum dentatum (nodular worm of swine), larval stage 3; experiment: In vitro assay: Oesophagostomum dentatum L3 larvae, minimum effective concentration; settings: in Sus scrofa, read-out: MEC (minimum effective concentration) against Oesophagostomum dentatum L3, L3 larvae, 20 per well, microscopic examination, concentration at which at least one larva shows mortality, change in motility or development
From the text: (§3) In Vitro Assay: Ascaridia galli and Oesophagostomum dentatum
(§4) Ascaridia galli (intestinal roundworm of chicken), larval stage 3 (“L3”); and Oesophagostomum dentatum (nodular worm of swine), larval stages 3 and 4 (respectively “L3” and “L4”) where suspended in a nutrient medium and distributed to 96 well plates with 20 larvae per well. The wells were spiked with DMSO solutions of the compounds with declining concentration.

larvae L4 of D. immitis = experiment: In vitro assay: Dirofilaria immitis L4 motility; assay type: cell-based; settings: 72 h, read-out: EC50 value, Dirofilaria immitis L4, 10 L4 larvae, 3 days incubation, reduction in motility vs DMSO, duplicates
D. immitis microfilaria = experiment: In vitro assay: Dirofilaria immitis L1 (microfilaria) motility; assay type: cell-based; settings: 72 h, read-out: EC50 value, Dirofilaria immitis L1, approximately 500 microfilaria, 3 days incubation, reduction in motility vs DMSO, duplicates
[4] = tested on: Oesophagostomum dentatum (nodular worm of swine), larval stage 4; experiment: In vitro assay: Oesophagostomum dentatum L4 larvae, minimum effective concentration; settings: in Sus scrofa, read-out: MEC (minimum effective concentration) against Oesophagostomum dentatum L4, L4 larvae, 20 per well, microscopic examination, concentration at which at least one larva shows mortality, change in motility or development
From the text: as §3, §4

A. viteae microfilaria = experiment: In vitro assay: Acanthocheilonema viteae L1 (microfilaria) motility; settings: 72 h, read-out: EC50 value, Acanthocheilonema viteae L1, approximately 500 microfilaria, 3 days incubation, reduction in motility vs DMSO, duplicates
Method: In Vitro Assay: Acanthocheilonema viteae L1
Approximately 500 A. viteae microfilaria were added to a microtiter plate containing a nutrient medium and the test compound in DMSO at varying concentrations. After incubation for 3 days, activity was evaluated as reduction in motility as compared to DMSO as negative control. Compounds were tested in duplicates. Based on the concentration response curves EC50 values were calculated.

Chain of Caenorhabditis elegans slo-1a (Q95V25 whole entry): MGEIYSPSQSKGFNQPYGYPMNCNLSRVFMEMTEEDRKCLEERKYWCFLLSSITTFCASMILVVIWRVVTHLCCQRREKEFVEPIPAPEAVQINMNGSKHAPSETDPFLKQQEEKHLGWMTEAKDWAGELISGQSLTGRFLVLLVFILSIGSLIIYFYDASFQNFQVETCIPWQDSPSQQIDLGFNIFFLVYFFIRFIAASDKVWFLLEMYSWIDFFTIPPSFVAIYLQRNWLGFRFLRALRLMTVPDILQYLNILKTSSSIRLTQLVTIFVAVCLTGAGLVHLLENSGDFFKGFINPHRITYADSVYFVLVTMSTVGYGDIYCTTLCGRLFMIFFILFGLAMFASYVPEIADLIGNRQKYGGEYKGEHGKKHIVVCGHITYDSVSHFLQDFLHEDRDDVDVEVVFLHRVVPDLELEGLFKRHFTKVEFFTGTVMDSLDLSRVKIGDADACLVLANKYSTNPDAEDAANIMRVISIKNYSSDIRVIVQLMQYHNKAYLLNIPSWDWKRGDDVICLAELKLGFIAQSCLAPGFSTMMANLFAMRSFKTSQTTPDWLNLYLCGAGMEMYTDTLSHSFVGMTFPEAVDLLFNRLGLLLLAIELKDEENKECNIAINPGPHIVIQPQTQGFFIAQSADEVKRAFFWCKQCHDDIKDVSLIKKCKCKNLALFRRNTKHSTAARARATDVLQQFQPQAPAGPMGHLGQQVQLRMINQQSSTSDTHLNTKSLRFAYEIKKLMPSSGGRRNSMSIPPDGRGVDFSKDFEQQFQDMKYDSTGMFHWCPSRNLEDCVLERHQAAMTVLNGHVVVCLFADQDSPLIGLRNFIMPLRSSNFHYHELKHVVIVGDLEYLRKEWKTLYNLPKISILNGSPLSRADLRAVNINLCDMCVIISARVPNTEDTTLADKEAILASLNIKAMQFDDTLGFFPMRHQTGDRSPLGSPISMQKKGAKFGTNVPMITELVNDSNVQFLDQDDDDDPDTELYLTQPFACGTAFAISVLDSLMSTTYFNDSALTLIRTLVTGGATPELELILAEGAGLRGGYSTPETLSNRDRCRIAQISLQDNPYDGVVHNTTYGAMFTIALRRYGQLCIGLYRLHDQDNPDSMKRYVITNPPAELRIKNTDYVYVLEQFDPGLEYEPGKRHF
Chain of human Maxi K channel (BK channel), KCNMA1 (KCa1.1) and beta1 (KCNMB1) subunits (Q12791 1-1178 isoform Q12791-5): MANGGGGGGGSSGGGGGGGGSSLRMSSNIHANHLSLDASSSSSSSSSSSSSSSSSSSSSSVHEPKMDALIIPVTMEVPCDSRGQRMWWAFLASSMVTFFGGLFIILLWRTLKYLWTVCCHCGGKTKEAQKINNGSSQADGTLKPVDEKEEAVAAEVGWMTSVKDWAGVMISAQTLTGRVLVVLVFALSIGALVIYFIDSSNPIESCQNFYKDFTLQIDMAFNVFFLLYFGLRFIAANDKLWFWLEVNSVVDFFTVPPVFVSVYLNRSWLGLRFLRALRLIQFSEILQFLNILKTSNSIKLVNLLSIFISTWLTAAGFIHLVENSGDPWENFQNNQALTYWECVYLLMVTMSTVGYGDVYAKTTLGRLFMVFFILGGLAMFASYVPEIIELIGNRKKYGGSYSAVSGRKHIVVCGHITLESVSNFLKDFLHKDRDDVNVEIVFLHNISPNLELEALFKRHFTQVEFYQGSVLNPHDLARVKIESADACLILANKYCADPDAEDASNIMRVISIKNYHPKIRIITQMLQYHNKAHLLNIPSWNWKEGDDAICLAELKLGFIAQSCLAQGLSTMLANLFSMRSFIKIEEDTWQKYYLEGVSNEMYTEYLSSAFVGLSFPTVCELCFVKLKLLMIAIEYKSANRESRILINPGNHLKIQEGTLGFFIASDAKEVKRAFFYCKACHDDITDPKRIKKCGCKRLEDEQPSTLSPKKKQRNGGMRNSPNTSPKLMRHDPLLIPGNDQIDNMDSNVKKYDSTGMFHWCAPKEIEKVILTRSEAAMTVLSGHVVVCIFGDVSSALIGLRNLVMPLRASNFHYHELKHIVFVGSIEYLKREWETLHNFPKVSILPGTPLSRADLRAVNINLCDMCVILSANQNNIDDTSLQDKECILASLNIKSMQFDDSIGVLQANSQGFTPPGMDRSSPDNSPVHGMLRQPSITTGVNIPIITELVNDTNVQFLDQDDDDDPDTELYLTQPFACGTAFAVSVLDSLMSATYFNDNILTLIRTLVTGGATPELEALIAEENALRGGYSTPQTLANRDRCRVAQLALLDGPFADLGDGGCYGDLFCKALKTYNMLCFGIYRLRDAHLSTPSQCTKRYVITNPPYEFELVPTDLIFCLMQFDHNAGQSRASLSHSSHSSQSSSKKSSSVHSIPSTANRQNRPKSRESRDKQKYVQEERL
Chain of human Maxi K channel (BK channel), KCNMA1 (KCa1.1) and beta1 (KCNMB1) subunits (Q16558 whole entry partner): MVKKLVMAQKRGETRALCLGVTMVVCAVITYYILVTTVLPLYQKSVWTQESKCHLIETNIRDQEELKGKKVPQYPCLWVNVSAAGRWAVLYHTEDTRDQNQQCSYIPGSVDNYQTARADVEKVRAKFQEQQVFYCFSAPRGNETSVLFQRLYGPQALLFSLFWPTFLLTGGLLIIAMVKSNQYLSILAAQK

SMILES | EC50 [1] | EC50 [2] | other results
CN(C)c1c(C(=O)NC2CCc3ccccc32)cnc2c1ccn2-c1cc(Cl)cc(Cl)c1 (stereo not drawn) [Compound 1, 1-(3,5-dichlorophenyl)-N-(2,3-dihydro-1H-inden-1-yl)-4-(dimethylamino)-1H-pyrrolo[2,3-b]pyridine-5-carboxamide] | < 1000 nM | > 30 µM | –
CN(C)c1c(C(=O)NC2CCc3ccccc32)cnc2c1ccn2-c1cccc(Cl)c1Cl (stereo not drawn) [Compound 2] | < 1000 nM | > 30 µM | –
O=C(NC1CCc2ccccc21)c1cnc2c(ccn2-c2cc(Cl)cc(Cl)c2)c1N1CCOCC1 (stereo not drawn) [Compound 3] | – | > 30 µM | –
O=C(NC1CCc2ccccc21)c1cnc2c(ccn2-c2cccc(Cl)c2Cl)c1N1CCOCC1 (stereo not drawn) [Compound 4] | < 1000 nM | > 30 µM | –
CN(C)c1c(C(=O)NC2CCOc3ccccc32)cnc2c1ccn2-c1cc(Cl)cc(Cl)c1 (stereo not drawn) [Compound 5] | < 1000 nM | > 30 µM | minimal effective concentration [3]: ≤ 50 µM
CN(C)c1c(C(=O)NC2CCOc3ccccc32)cnc2c1ccn2-c1cccc(Cl)c1Cl (stereo not drawn) [Compound 6] | < 1000 nM | > 30 µM | –
O=C(NC1CCOc2ccccc21)c1cnc2c(ccn2-c2cc(Cl)cc(Cl)c2)c1N1CCOCC1 (stereo not drawn) [Compound 7] | – | > 30 µM | –
O=C(NC1CCOc2ccccc21)c1cnc2c(ccn2-c2cccc(Cl)c2Cl)c1N1CCOCC1 (stereo not drawn) [Compound 8] | < 1000 nM | > 30 µM | EC50 (larvae L4 of D. immitis): < 1000 nM
CN(C)c1c(C(=O)NCc2ccccc2)cnc2c1ccn2-c1cc(Cl)cc(Cl)c1 [Compound 9] | – | > 30 µM | –
CN(C)c1c(C(=O)NCc2ccccc2)cnc2c1ccn2-c1cccc(Cl)c1Cl [Compound 10] | < 1000 nM | > 30 µM | –
O=C(NCc1ccccc1)c1cnc2c(ccn2-c2cc(Cl)cc(Cl)c2)c1N1CCOCC1 [Compound 11] | – | > 30 µM | minimal effective concentration [3]: ≤ 50 µM
O=C(NCc1ccccc1)c1cnc2c(ccn2-c2cccc(Cl)c2Cl)c1N1CCOCC1 [Compound 12] | – | > 30 µM | –
CN(C)c1c(C(=O)N[C@H]2CCOc3ccccc32)cnc2c1ccn2-c1cccc(Cl)c1Cl [Compound 13] | < 1000 nM | > 30 µM | –
CN(C)c1c(C(=O)N[C@H]2CCCc3ccccc32)cnc2c1ccn2-c1cccc(Cl)c1Cl [Compound 14, (S)-1-(2,3-dichlorophenyl)-4-(dimethylamino)-N-(1,2,3,4-tetrahydronaphthalen-1-yl)-1H-pyrrolo[2,3-b]pyridine-5-carboxamide] | < 1000 nM | 10 to 30 µM | –
CN(C)c1c(C(=O)N[C@@H]2CCc3ccccc32)cnc2c1ccn2-c1cccc(Cl)c1Cl [Compound 15] | – | > 30 µM | EC50 (D. immitis microfilaria): < 10 µM
CN(C)c1c(C(=O)N[C@H]2CCc3ccccc32)cnc2c1ccn2-c1cccc(Cl)c1Cl [Compound 16] | < 1000 nM | > 30 µM | –
O=C(N[C@H]1CCCc2ccccc21)c1cnc2c(ccn2-c2cccc(Cl)c2Cl)c1N1CCOCC1 [Compound 17] | < 1000 nM | 10 to 30 µM | –
CN(C)c1c(C(=O)N[C@@H]2CCOc3ccccc32)cnc2c1ccn2-c1cccc(Cl)c1Cl [Compound 18] | < 10000 nM | > 30 µM | minimal effective concentration [4]: ≤ 50 µM; EC50 (A. viteae microfilaria): < 10 µM
CN(C)c1c(C(=O)NC2CC(C)(C)Oc3ccccc32)cnc2c1ccn2-c1cccc(Cl)c1Cl (stereo not drawn) [Compound 19] | < 10000 nM | > 30 µM | –
CN(C)c1c(C(=O)Nc2cccc3ccccc23)cnc2c1ccn2-c1cccc(Cl)c1Cl [Compound 20] | – | > 30 µM | EC50 (A. viteae microfilaria): < 10 µM; minimal effective concentration [3]: ≤ 50 µM
O=C(N[C@H]1CCOc2ccccc21)c1cnc2c(ccn2-c2cccc(Cl)c2Cl)c1N1CCOCC1 [Compound 21] | < 1000 nM | > 30 µM | –
O=C(N[C@H]1CCc2ccccc21)c1cnc2c(ccn2-c2cccc(Cl)c2Cl)c1N1CCOCC1 [Compound 22] | – | > 30 µM | –
O=C(Nc1cccc2ccccc12)c1cnc2c(ccn2-c2cccc(Cl)c2Cl)c1N1CCOCC1 [Compound 23] | – | > 30 µM | minimal effective concentration [4]: ≤ 50 µM; minimal effective concentration [3]: ≤ 50 µM
CN(C)c1c(C(=O)N[C@H]2CCOc3ccccc32)cnc2c1ccn2-c1cccc(F)c1F [Compound 25] | < 1000 nM | > 30 µM | –

SMILES | EC50 [1] | EC50 [2] | other results
CN(C)c1c(C(=O)N[C@H]2CCOc3ccccc32)cnc2c1ccn2-c1cccc(C(F)(F)F)c1 [Compound 28] | < 1000 nM | > 30 µM | –
Cc1cccc(-n2ccc3c(N(C)C)c(C(=O)N[C@H]4CCOc5ccccc54)cnc32)c1C [Compound 29] | < 1000 nM | > 30 µM | –
CN(C)c1cccc(-n2ccc3c(N(C)C)c(C(=O)N[C@H]4CCOc5ccccc54)cnc32)c1 [Compound 30] | < 1000 nM | > 30 µM | minimal effective concentration [3]: ≤ 50 µM
COc1cccc(-n2ccc3c(N(C)C)c(C(=O)N[C@H]4CCOc5ccccc54)cnc32)c1 [Compound 31] | < 1000 nM | > 30 µM | –
CN(C)c1c(C(=O)N[C@H]2CCOc3ccccc32)cnc2c1ccn2-c1cc(Cl)cc(Cl)c1 [Compound 32] | – | > 30 µM | –
O=C(N[C@H]1CCOc2ccccc21)c1cnc2c(ccn2-c2cc(Cl)cc(Cl)c2)c1N1CCOCC1 [Compound 33] | – | > 30 µM | –
CN(C)c1c(C(=O)N[C@H]2CCCc3ccccc32)cnc2c1ccn2-c1cc(Cl)cc(Cl)c1 [Compound 34] | < 10000 nM | > 30 µM | –
O=C(N[C@H]1CCCc2ccccc21)c1cnc2c(ccn2-c2cc(Cl)cc(Cl)c2)c1N1CCOCC1 [Compound 35] | – | > 30 µM | –
O=C(N[C@H]1CCc2ccccc21)c1cnc2c(ccn2-c2cc(Cl)cc(Cl)c2)c1N1CCOCC1 [Compound 37] | – | > 30 µM | EC50 (D. immitis microfilaria): < 10 µM; minimal effective concentration [4]: ≤ 50 µM; EC50 (A. viteae microfilaria): < 10 µM; minimal effective concentration [3]: ≤ 50 µM
CN(C)c1c(C(=O)NC2CC(C)(C)Oc3ccccc32)cnc2c1ccn2-c1cc(Cl)cc(Cl)c1 (stereo not drawn) [Compound 38] | < 10000 nM | 10 to 30 µM | EC50 (A. viteae microfilaria): < 10 µM; minimal effective concentration [3]: ≤ 50 µM
CC1(C)CC(NC(=O)c2cnc3c(ccn3-c3cc(Cl)cc(Cl)c3)c2N2CCOCC2)c2ccccc2O1 (stereo not drawn) [Compound 39] | – | > 30 µM | minimal effective concentration [4]: ≤ 50 µM; EC50 (A. viteae microfilaria): < 10 µM; minimal effective concentration [3]: ≤ 50 µM
CC1(C)CC(NC(=O)c2cnc3c(ccn3-c3cccc(Cl)c3Cl)c2N2CCOCC2)c2ccccc2O1 (stereo not drawn) [Compound 40] | < 10000 nM | > 30 µM | EC50 (A. viteae microfilaria): < 10 µM; minimal effective concentration [3]: ≤ 50 µM
CN(C)c1c(C(=O)Nc2cccc3ccccc23)cnc2c1ccn2-c1cc(Cl)cc(Cl)c1 [Compound 41] | – | > 30 µM | EC50 (A. viteae microfilaria): < 10 µM
O=C(Nc1cccc2ccccc12)c1cnc2c(ccn2-c2cc(Cl)cc(Cl)c2)c1N1CCOCC1 [Compound 42] | – | > 30 µM | –
CCOc1c(C(=O)N[C@H]2CCOc3ccccc32)cnc2c1ccn2-c1cc(Cl)cc(Cl)c1 [Compound 43] | – | > 30 µM | EC50 (D. immitis microfilaria): < 10 µM; minimal effective concentration [4]: ≤ 50 µM
CCOc1c(C(=O)N[C@H]2CCc3ccccc32)cnc2c1ccn2-c1cc(Cl)cc(Cl)c1 [Compound 44] | – | > 30 µM | –
CCOc1c(C(=O)N[C@H]2CCCc3ccccc32)cnc2c1ccn2-c1cc(Cl)cc(Cl)c1 [Compound 45] | – | > 30 µM | –
CCOc1c(C(=O)Nc2cccc3ccccc23)cnc2c1ccn2-c1cc(Cl)cc(Cl)c1 [Compound 46] | – | > 30 µM | –
COc1c(C(=O)N[C@H]2CCOc3ccccc32)cnc2c1ccn2-c1cc(Cl)cc(Cl)c1 [Compound 47] | – | > 30 µM | –
COc1c(C(=O)N[C@H]2CCCc3ccccc32)cnc2c1ccn2-c1cc(Cl)cc(Cl)c1 [Compound 48] | – | > 30 µM | EC50 (A. viteae microfilaria): < 10 µM; minimal effective concentration [3]: ≤ 50 µM
COc1c(C(=O)N[C@H]2CCc3ccccc32)cnc2c1ccn2-c1cc(Cl)cc(Cl)c1 [Compound 49] | – | > 30 µM | –
COc1c(C(=O)Nc2cccc3ccccc23)cnc2c1ccn2-c1cc(Cl)cc(Cl)c1 [Compound 50] | – | > 30 µM | EC50 (D. immitis microfilaria): < 10 µM
O=C(N[C@H]1CCOc2ccccc21)c1cnc2c(ccn2-c2cc(Cl)cc(Cl)c2)c1O [Compound 51] | – | > 30 µM | EC50 (D. immitis microfilaria): < 10 µM; EC50 (A. viteae microfilaria): < 10 µM
